Measured values from PMC12217481, “Structure and mechanism of taniborbactam inhibition of the cefepime-hydrolyzing, partial R2-loop deletion Pseudomonas-derived cephalosporinase variant PDC-88” (Antimicrobial Agents and Chemotherapy, 2025).

Tests used:
[1] = target: T1, PDC-3 (Pseudomonas aeruginosa, UniProt P24735, T105A); assay: Timed ESI-MS of acyl-enzyme formation, PDC-3; type: biochemical
T1 construct: The PDC-3 expression construct was created in a similar manner but starting with a previously described pBC SK(−) vector; made in house; host or cells: E. coli BL21-CodonPlus (DE3)-RP, pET24a(+)
Method: (§1) Timed ESI-MS experiments allow tracking of the reaction over time and determination of product modification, enabling the elucidation of mechanistic detail. Time courses were collected for both PDC-3 and PDC-88 with FEP (Fig. 4), CAZ (Fig. S1), TOL (Fig. S2), and ATM (Fig. S3). Substrate modification (here, loss of the R2 group) was determined based on differences between masses of apo and acyl-enzyme peaks (Fig. S4). […] Based on the differences in mass between the apo enzyme peaks, the acyl-enzyme peaks, and the molecular masses of each substrate, the mass of the adducts was determined and used to predict any portion of the substrate molecule that might be lost during the reaction (Fig. S4). As expected ([26][–][28]), all three cephalosporin antibiotics (FEP, CAZ, and TOL) lost their R2 groups during the reaction, while ATM (the sole monobactam) maintained its initial mass.
(§2) Five micrograms of PDC-3 or PDC-88 was incubated at the indicated molar ratio (1:2 to 1:100 PDC:β-lactam) in a total volume of 20 µL in 1× PBS at pH 7.4 at room temperature for the duration of the indicated time points. Reactions were quenched with the addition of 10 µL acetonitrile and added to 1 mL of 0.1% formic acid in water.
(§3) Data were collected using a Waters Synapt G2-Si quadrupole time-of-flight (Q-TOF) mass spectrometer and Waters Acquity UPLC BEH C18 1.7 µm column (2.1 by 100 mm). MassLynx V4.1 was used to deconvolute protein peaks. The tune settings for each sample were as follows: capillary voltage of 3.5 kV, sampling cone voltage of 35 V, source offset of 35 V, source temperature of 100°C, desolvation temperature of 500°C, cone gas flow rate of 100 L/h, desolvation gas flow rate of 800 L/h, and nebulizer bar at 6.0. Mobile phase A was 0.1% formic acid in water. Mobile phase B was 0.1% formic acid in acetonitrile. The mass accuracy of this system is ±5 Da.

[2] = tested on: NDM-1; parameters: method as in PMID 22005056; conditions: cited from earlier work
[3] = target: T2, PDC-88 (Pseudomonas aeruginosa, UniProt P24735, DEL316-317/G27D/G391A/T105A/V205L/V356I); assay: Timed ESI-MS of acyl-enzyme formation, PDC-88; type: biochemical
T2 construct: NdeI 5′-[…]-3ʹ and BamHI 5ʹ-[…]-3ʹ; His tag removed) (N); made in house; host or cells: E. coli BL21-CodonPlus (DE3)-RP, pET24a(+)
Method: as §1, §2, §3

[4] = tested on: isogenic E. coli strains expressing PDC R2-loop deletion variants (PDC-88 to PDC-92); assay: MIC changes across the five isogenic E. coli R2-loop deletion strains; type: cell-based, Escherichia coli; conditions: inhibitor at constant 4 µg/mL; R2-loop deletion variant strains
Method: Modal broth microdilution MICs (or median broth microdilution MICs where appropriate) were determined in accordance with Clinical and Laboratory Standards Institute (CLSI) M07 guidelines ([43]). Isogenic E. coli DH10B cells expressing the abovementioned plasmid-encoded PDC constructs were used. […] CLSI quality control strains Escherichia coli NCTC 13353, E. coli ATCC 35218, and Klebsiella pneumoniae ATCC 700603 were used during testing ([24]).

[5] = 60 min incubation, starting molar ratio 1:2
[6] = timed ESI-MS, 1 to 30 min (ATM to 60 min)

Row | SMILES | apo enzyme after incubation [1, 5] | acyl-enzyme complex formation and deacylation [1, 6] | hydrolysis by NDM-1 [2] | apo enzyme after incubation [3, 5] | acyl-enzyme complex formation and deacylation [3, 6] | restoration of FEP activity / susceptibility by inhibitor [4]
1 | C[C@H]1[C@H](NC(=O)/C(=N\OC(C)(C)C(=O)O)c2csc(N)n2)C(=O)N1S(=O)(=O)O [ATM, aztreonam] | less than 10% | quickly formed acyl-enzyme complexes | does not hydrolyze | no apo enzyme present | quickly formed acyl-enzyme complexes | 
2 | NC(=O)[C@@H]1CC[C@@H]2CN1C(=O)N2OS(=O)(=O)O [AVI, avibactam] |  |  |  |  |  | restoring FEP activity in all cases
